What was measured:
[1] = compound: CCN(CCO)CCCOc1ccc2c(Nc3cc(CC(=O)Nc4cccc(F)c4)[nH]n3)ncnc2c1 [AZD2811]; conditions: max 1 µM
Method in brief: (§1)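 Viability was measured with CellTiter-Glo 2.0 luminescence after 72 hours of dosing at a final DMSO of typically 0.2%, and scaled between blank-well and DMSO-well means. Beforehand, cancer cell lines sat 24 hours at 37°C and 5% CO2 in 1536-well plates in 7.5 μl DMEM/F12 or RPMI with 10% FBS. A non-linear mixed effects model fitted two-parameter logistic curves to the dose responses. The single-agent IC50 comes from these fits.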

[2] = compound: Cc1c2c(nn1C)CSCc1cc(n(C)n1)CSc1cc(c3ccccc3c1)OCCCc1c(C(=O)O)n(C)c3c-2c(Cl)ccc13 [AZD5991]; conditions: max 1 µM
Method in brief: as §1

[3] = compound: COc1cc2ncnc(Nc3ccc(F)c(Cl)c3)c2cc1OCCCN1CCOCC1 [Gefitinib]; conditions: max 10 µM
Method in brief: as §1

[4] = compound: COc1nnc2ccc(N3CCC(c4ccc(OCCN5CCN(C)C(=O)[C@H]5C)cc4)CC3)nn12 [AZD5153]; conditions: max 1 µM
Method in brief: as §1

[5] = compound: CCc1c2c(nc3ccc(O)cc13)-c1cc3c(c(=O)n1C2)COC(=O)[C@]3(O)CC [SN-38]; conditions: max 0.3 µM
Method in brief: as §1

[6] = compound: CS(=O)(=O)CCNCc1ccc(-c2ccc3ncnc(Nc4ccc(OCc5cccc(F)c5)c(Cl)c4)c3c2)o1 [Lapatinib]; conditions: max 10 µM
Method in brief: as §1

[7] = compound: COc1cccc(OCCCN)c1-c1cc(Nc2cnc(C#N)cn2)n[nH]1 [Prexasertib]; conditions: max 1 µM
Method in brief: as §1

[8] = compound: COc1cccc2c1C(=O)c1c(O)c3c(c(O)c1C2=O)C[C@@](O)(C(=O)CO)C[C@@H]3O[C@H]1C[C@H](N)[C@H](O)[C@H](C)O1 [Doxorubicin]; conditions: max 1 µM
Method in brief: as §1

[9] = compound: Cc1cc2ncnn2cc1Nc1ncc2c(n1)n(C1CCOCC1)c(=O)n2C [AZD7648]; conditions: max 10 µM
Method in brief: as §1

[10] = compound: CC1(C)CCC(CN2CCN(c3ccc(C(=O)NS(=O)(=O)c4ccc(NCC5CCOCC5)c([N+](=O)[O-])c4)c(Oc4cnc5[nH]ccc5c4)c3)CC2)=C(c2ccc(Cl)cc2)C1 [Venetoclax]; conditions: max 1 µM
Method in brief: as §1

[11] = compound: CC1=C(C(=CC=C1)Cl)NC(=O)C2=CN=C(S2)NC3=CC(=NC(=N3)C)N4CCN(CC4)CCO [Dasatinib]; conditions: max 2 µM
Method in brief: as §1

[12] = compound: C[C@@H](Oc1cc(-c2cnn(C3CCNCC3)c2)cnc1N)c1c(Cl)ccc(F)c1Cl [Crizotinib]; conditions: max 10 µM
Method in brief: as §1

[13] = compound: C1CN(CCC1(C(=O)N[C@@H](CCO)C2=CC=C(C=C2)Cl)N)C3=NC=NC4=C3C=CN4 [Capivasertib]; conditions: max 10 µM
Method in brief: as §1

[14] = compound: C[C@@H]1COCCN1C2=NC(=NC(=C2)C3(CC3)[S@](=N)(=O)C)C4=C5C=CNC5=NC=C4 [AZD6738]; conditions: max 10 µM
Method in brief: as §1

[15] = compound: Cc1nc(-c2cn3c(n2)-c2ccc(-c4cnn(C(C)(C)C(N)=O)c4)cc2OCC3)n(C(C)C)n1 [Taselisib]; conditions: max 10 µM
Method in brief: as §1

[16] = compound: CN(CC[C@H](CSC1=CC=CC=C1)NC2=C(C=C(C=C2)S(=O)(=O)NC(=O)C3=CC=C(C=C3)N4CCC(CC4)[C@H](C5=CC=CC=C5C6=CC=C(C=C6)Cl)O)S(=O)(=O)C(F)(F)F)CCO [AZD4320]; conditions: max 1 µM
Method in brief: as §1

[17] = compound: CN(C)CCCOc1ccc(-c2ccc3ncc4c(c3c2)n(C2CCOCC2)c(=O)n4C)cn1 [AZD0156]; conditions: max 3 µM
Method in brief: as §1

[18] = compound: C[C@@H](c1ccc2nccn2c1)n1nnc2ncc(-c3cnn(C)c3)nc21 [Savolitinib]; conditions: max 1 µM
Method in brief: as §1

[19] = compound: Cn1cnc2c(F)c(Nc3ccc(Br)cc3Cl)c(C(=O)NOCCO)cc21 [Selumetinib]; conditions: max 10 µM
Method in brief: as §1

[20] = compound: COc1cc(Nc2ncc3c(n2)-c2ccc(Cl)cc2C(c2c(F)cccc2OC)=NC3)ccc1C(=O)O [Alisertib]; conditions: max 10 µM
Method in brief: as §1

[21] = compound: CC1=CN2[C@@H](C1)C=NC3=CC(=C(C=C3C2=O)OC)OCCCCCOC4=C(C=C5C(=C4)N=C[C@@H]6CC(=CN6C5=O)C)OC [SG3199]; conditions: max 0.001 µM
Method in brief: as §1

[22] = compound: CC(C)n1c(=O)n(C)c2cnc3cc(F)c(-c4ccc(OCCCN5CCCCC5)nc4)cc3c21 [AZD1390]; conditions: max 0.3 µM
Method in brief: as §1

[23] = compound: CC(=O)Nc1cccc(-n2c(=O)n(C3CC3)c(=O)c3c(Nc4ccc(I)cc4F)n(C)c(=O)c(C)c32)c1 [Trametinib]; conditions: max 1 µM
Method in brief: as §1

[24] = compound: CC(=O)c1c(C)c2cnc(Nc3ccc(N4CCNCC4)cn3)nc2n(C2CCCC2)c1=O [Palbociclib]; conditions: max 10 µM
Method in brief: as §1

[25] = compound: C[C@@H](Nc1cc(F)cc(F)c1)c1cc(C(=O)N(C)C)cc2c(=O)cc(N3CCOCC3)oc12 [AZD8186]; conditions: max 3 µM
Method in brief: as §1

[26] = compound: C=CCn1c(=O)c2cnc(Nc3ccc(N4CCN(C)CC4)cc3)nc2n1-c1cccc(C(C)(C)O)n1 [AZD1775]; conditions: max 3 µM
Method in brief: as §1

[27] = compound: O=C(c1cc(Cc2n[nH]c(=O)c3ccccc23)ccc1F)N1CCN(C(=O)C2CC2)CC1 [Olaparib]; conditions: max 10 µM
Method in brief: as §1

Cell Line	IC50, cell viability 72 h [1]	IC50, cell viability 72 h [2]	IC50, cell viability 72 h [3]	IC50, cell viability 72 h [4]	IC50, cell viability 72 h [5]	IC50, cell viability 72 h [6]	IC50, cell viability 72 h [7]	IC50, cell viability 72 h [8]	IC50, cell viability 72 h [9]	IC50, cell viability 72 h [10]	IC50, cell viability 72 h [11]	IC50, cell viability 72 h [12]	IC50, cell viability 72 h [13]	IC50, cell viability 72 h [14]	IC50, cell viability 72 h [15]	IC50, cell viability 72 h [16]	IC50, cell viability 72 h [17]	IC50, cell viability 72 h [18]	IC50, cell viability 72 h [19]	IC50, cell viability 72 h [20]	IC50, cell viability 72 h [21]	IC50, cell viability 72 h [22]	IC50, cell viability 72 h [23]	IC50, cell viability 72 h [24]	IC50, cell viability 72 h [25]	IC50, cell viability 72 h [26]	IC50, cell viability 72 h [27]
NCI-H2722 (Mesothelioma)	> 1000 nM	> 1000 nM	> 10000 nM	> 1000 nM	> 300 nM	> 10000 nM	> 1000 nM	> 1000 nM	> 10000 nM	> 1000 nM	> 2000 nM	> 10000 nM	> 10000 nM	> 10000 nM	> 10000 nM	> 1000 nM	> 3000 nM	> 1000 nM	> 10000 nM	> 10000 nM	> 1 nM	> 300 nM	> 1000 nM	> 10000 nM	> 3000 nM	> 3000 nM	> 10000 nM
NUGC-4 (Gastric Carcinoma)	> 1000 nM	> 1000 nM	> 10000 nM	582 nM	> 300 nM	> 10000 nM	948 nM	> 1000 nM	> 10000 nM	> 1000 nM	> 2000 nM	> 10000 nM	> 10000 nM	> 10000 nM	> 10000 nM	> 1000 nM	> 3000 nM	> 1000 nM	5680 nM	> 10000 nM	> 1 nM	> 300 nM	> 1000 nM	> 10000 nM	> 3000 nM	2530 nM	> 10000 nM
OV-56 (Ovarian Carcinoma)	> 1000 nM	> 1000 nM	> 10000 nM	> 1000 nM	25 nM	> 10000 nM	42.2 nM	> 1000 nM	> 10000 nM	> 1000 nM	> 2000 nM	> 10000 nM	> 10000 nM	> 10000 nM	> 10000 nM	> 1000 nM	> 3000 nM	> 1000 nM	> 10000 nM	> 10000 nM	> 1 nM	> 300 nM	> 1000 nM	> 10000 nM	> 3000 nM	> 3000 nM	> 10000 nM
SW1573 (Lung Adenocarcinoma)	> 1000 nM	> 1000 nM	> 10000 nM	> 1000 nM	52.2 nM	> 10000 nM	> 1000 nM	> 1000 nM	> 10000 nM	> 1000 nM	> 2000 nM	> 10000 nM	> 10000 nM	> 10000 nM	> 10000 nM	> 1000 nM	> 3000 nM	> 1000 nM	> 10000 nM	> 10000 nM	> 1 nM	> 300 nM	> 1000 nM	> 10000 nM	> 3000 nM	> 3000 nM	> 10000 nM

Reference: the supplement of paper PMC11061612
